The source made the active and inactive calls. No cut-off for these calls is given here.
Legend:
Histone deacetylase 4 [1] = biological target: T1, Histone deacetylase 4 (Homo sapiens, UniProt P56524); experiment: Inhibition of flag-tagged HDAC4 expressed in HEK293 cells upto 10,000 nM by Biomol assay; format: cell-based
Histone deacetylase 4 [2] = biological target: T1, Histone deacetylase 4; experiment: Inhibition of HDAC4 catalytic domain expressed in HEK293 cells upto 10,000 nM by Biomol assay; format: cell-based
[3] = test system: Histone deacetylase 5 (Homo sapiens), Q9UQL6 [H1006Y]; experiment: Inhibition of HDAC5 H1006Y mutant expressed in HEK293 cells; format: cell-based
[4] = test system: T2, Histone deacetylase 7 (Homo sapiens), Q8WUI4 [H843Y]; experiment: Inhibition of HDAC7 H843Y mutant expressed in HEK293 cells; format: cell-based
T2 sequence (whole entry): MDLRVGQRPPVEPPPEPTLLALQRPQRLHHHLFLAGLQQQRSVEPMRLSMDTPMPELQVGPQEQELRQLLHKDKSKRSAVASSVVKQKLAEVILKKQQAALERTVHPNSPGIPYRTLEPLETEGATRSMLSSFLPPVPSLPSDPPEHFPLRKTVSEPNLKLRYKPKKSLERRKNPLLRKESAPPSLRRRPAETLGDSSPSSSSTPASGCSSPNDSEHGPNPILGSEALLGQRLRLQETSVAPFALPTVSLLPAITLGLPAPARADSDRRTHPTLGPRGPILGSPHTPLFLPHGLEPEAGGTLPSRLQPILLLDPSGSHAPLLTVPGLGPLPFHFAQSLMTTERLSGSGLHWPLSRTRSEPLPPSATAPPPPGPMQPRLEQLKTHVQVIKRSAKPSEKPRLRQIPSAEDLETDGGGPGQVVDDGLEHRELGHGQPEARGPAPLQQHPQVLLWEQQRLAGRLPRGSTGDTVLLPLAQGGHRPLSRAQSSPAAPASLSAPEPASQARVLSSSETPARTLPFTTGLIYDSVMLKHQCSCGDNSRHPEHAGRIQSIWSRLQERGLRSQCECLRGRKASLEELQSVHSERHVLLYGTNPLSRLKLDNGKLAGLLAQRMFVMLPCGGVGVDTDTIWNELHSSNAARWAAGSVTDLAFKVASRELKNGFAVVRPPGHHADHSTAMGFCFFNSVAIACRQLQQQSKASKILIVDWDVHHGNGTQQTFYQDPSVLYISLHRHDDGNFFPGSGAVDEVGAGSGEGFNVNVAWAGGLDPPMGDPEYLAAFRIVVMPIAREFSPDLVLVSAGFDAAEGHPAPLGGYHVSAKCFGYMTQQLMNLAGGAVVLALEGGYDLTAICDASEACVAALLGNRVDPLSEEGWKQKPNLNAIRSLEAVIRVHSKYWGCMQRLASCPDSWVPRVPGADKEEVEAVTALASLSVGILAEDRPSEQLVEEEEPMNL

Histone deacetylase 4 [5] = biological target: T1, Histone deacetylase 4; experiment: Inhibition of flag-tagged HDAC4 by pull-down assay
Histone deacetylase 4 [6] = biological target: T1, Histone deacetylase 4; experiment: Inhibition of flag-tagged HDAC4 by Biomol assay

T1 sequence (P56524 whole entry, the tested form may be a part): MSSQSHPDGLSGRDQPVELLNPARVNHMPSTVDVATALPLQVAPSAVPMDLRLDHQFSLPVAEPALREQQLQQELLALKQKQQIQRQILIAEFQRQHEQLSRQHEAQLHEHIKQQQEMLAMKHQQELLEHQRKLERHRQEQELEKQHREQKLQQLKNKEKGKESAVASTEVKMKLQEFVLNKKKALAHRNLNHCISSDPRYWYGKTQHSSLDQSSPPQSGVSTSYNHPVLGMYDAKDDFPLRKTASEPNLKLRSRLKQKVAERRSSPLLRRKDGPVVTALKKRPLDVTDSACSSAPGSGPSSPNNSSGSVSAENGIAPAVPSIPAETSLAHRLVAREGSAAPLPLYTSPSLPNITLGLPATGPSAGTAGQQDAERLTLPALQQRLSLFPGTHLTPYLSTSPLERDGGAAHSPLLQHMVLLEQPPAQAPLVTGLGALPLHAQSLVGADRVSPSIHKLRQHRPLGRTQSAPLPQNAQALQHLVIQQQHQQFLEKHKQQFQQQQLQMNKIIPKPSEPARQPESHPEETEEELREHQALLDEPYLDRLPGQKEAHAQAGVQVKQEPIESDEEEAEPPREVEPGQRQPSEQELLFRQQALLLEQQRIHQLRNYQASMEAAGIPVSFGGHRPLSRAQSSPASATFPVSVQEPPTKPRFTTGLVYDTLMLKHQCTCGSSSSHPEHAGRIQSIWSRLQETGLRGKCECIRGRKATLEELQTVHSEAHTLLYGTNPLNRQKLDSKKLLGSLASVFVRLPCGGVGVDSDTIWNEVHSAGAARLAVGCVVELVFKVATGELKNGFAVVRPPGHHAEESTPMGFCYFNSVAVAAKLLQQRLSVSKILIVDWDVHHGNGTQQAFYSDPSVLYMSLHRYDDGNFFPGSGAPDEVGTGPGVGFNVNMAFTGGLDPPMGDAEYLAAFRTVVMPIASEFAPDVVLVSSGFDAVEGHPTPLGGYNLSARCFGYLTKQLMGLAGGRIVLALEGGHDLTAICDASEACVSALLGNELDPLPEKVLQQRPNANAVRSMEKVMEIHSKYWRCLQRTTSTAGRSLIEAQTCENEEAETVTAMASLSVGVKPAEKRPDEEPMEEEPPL
Chain of Histone deacetylase 5 (Homo sapiens), Q9UQL6 [H1006Y] (Q9UQL6 whole entry H1006Y): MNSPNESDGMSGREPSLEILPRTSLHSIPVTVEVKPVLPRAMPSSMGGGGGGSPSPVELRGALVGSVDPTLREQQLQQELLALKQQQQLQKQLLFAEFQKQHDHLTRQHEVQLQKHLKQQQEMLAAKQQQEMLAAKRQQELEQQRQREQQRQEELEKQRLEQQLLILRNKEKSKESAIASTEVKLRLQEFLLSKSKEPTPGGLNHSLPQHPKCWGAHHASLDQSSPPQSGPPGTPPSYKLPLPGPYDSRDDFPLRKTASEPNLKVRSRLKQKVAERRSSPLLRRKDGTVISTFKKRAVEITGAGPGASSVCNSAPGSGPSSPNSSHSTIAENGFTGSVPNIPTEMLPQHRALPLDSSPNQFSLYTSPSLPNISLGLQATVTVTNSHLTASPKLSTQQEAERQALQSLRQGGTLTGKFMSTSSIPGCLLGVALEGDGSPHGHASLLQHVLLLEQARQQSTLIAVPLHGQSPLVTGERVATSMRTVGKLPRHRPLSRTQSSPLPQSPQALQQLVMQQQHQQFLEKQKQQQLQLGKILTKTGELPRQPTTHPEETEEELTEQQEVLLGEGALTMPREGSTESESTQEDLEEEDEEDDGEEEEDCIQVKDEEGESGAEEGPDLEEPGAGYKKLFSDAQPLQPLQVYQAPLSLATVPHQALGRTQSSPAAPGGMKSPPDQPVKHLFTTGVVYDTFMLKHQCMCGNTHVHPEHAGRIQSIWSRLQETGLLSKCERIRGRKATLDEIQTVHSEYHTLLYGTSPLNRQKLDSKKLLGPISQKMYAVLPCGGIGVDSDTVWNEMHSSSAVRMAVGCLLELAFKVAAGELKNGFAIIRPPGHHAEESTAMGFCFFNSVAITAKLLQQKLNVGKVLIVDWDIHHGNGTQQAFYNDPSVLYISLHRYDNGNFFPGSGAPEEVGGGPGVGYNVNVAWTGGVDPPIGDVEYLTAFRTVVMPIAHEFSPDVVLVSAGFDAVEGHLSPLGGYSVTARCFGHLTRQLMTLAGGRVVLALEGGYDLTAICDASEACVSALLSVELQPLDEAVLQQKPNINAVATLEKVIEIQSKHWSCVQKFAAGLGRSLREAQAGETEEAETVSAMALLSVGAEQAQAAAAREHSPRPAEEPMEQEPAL

Row | Structure (SMILES) | Activity (Histone deacetylase 4 [1]) | Activity (Histone deacetylase 4 [2]) | Activity [3] | Activity [4] | IC50 (Histone deacetylase 4 [5]) | IC50 (Histone deacetylase 4 [6])
1 | CCC(=O)CCCCC[C@H](NC(=O)[C@H]1CCCCN1C(=O)[C@@H](NC(=O)[C@@H](N)Cc1cn(OC)c2ccccc12)[C@H](C)CC)C(=O)O | inactive | inactive |  |  |  | 
2 | O=C(/C=C/c1ccc(CN(CCO)CCc2c[nH]c3ccccc23)cc1)NO |  |  | Active | Active |  | 
3 | CCC(=O)CCCCC[C@H](NC(=O)[C@H]1CCCCN1C(=O)[C@@H](NC(=O)[C@@H](N)Cc1cn(OC)c2ccccc12)[C@@H](C)CC)C(=O)O |  |  |  |  | 152 nM | 88 nM
4 | CCC(=O)CCCCC[C@@H]1NC(=O)[C@H]2CCCCN2C(=O)[C@H]([C@@H](C)CC)NC(=O)[C@H](Cc2cn(OC)c3ccccc23)NC1=O | inactive | inactive | inactive | inactive |  | 

Reference: ChEMBL document CHEMBL1156529, “Unraveling the hidden catalytic activity of vertebrate class IIa histone deacetylases” (Proc Natl Acad Sci U S A, 2007)
